In patent publication US4885314A, “Novel HMG-CoA reductase inhibitors” (Merck & Co., Inc., priority 1988, dated 1989):

Tested on: HMG-CoA reductase
Assay: in vitro HMG-CoA reductase inhibition (protocol of J. Med. Chem., 1985, 28, page 347)
Format: biochemical
Settings: percent of the activity exhibited by mevinolin in the same protocol
Method: The intrinsic HMG-CoA reductase inhibition activity of the claimed compounds is measured in the in vitro protocol described is J. Med. Chem., 1985, 28, page 347.

relative inhibitory activity: 50%
SMILES: C=C1C=C2C=C[C@H](C)[C@H](CC[C@@H](O)C[C@@H](O)CC(=O)O)C2[C@@H](OC(=O)C(C)CC)C1 (stereo partly shown)
